These compounds were tested against T1, PD-1/PD-L1 (Homo sapiens, UniProt Q9NZQ7) (assay: PD-1/PD-L1 Homogeneous Time-Resolved Fluorescence (HTRF) Binding Assay). Conditions: 25° C., PBS pH 7.4, ~3 nM PD1, 10 nM PD-L1.
T1 construct: Recombinant human PD-L1 protein (19-238) with a His-tagged at the C-terminus; purchased AcroBiosystems PD1-H5229 (PD-L1); PD1-H5257 (PD-1)
Experimental: Example A: PD-1/PD-L1 Homogeneous Time-Resolved Fluorescence (HTRF) Binding Assay
Assays were performed in standard black 384-well polystyrene plates and a final volume was 20 μL. The inhibitor was first serially diluted with DMSO and added to the wells of the plate, followed by the addition of other reaction components. The final concentration of DMSO in the assay was 1%. Assays were performed at 25° C. in PBS buffer (pH 7.4) containing 0.05% Tween-20 and 0.1% BSA. Recombinant human PD-L1 protein (19-238) with a His-tagged at the C-terminus was purchased from AcroBiosystems (PD1-H5229). Recombinant human PD-1 protein (25-167) with an Fc tag at the C-terminus was also purchased from AcroBiosystems (PD1-H5257). The PD-L1 and PD-1 proteins were diluted in assay buffer and then […] of the solution was extracted and added to the wells of the plate. Plates were centrifuged and proteins and inhibitors were preincubated for 40 minutes. After incubation, 0.1 μl of HTRF detection buffer containing europium […] labeled anti-human IgG (PerkinElmer-AD0212), Fc-specific and anti-His SureLight®-Allophycocyanin (APC, PerkinElmer-AD0059H) conjugated antibodies was added. After centrifugation, the plates were incubated at 25° C. for 60 minutes. Data was read in a PHERAstar FS plate reader (665 nm/620 nm ratio). Final concentrations in the assay were ˜3 nM PD1, 10 nM PD-L1, 1 nM europium anti-human IgG, and 20 nM anti-His-allophycocyanin. Activity data were fitted using GraphPad Prism 5_0 software to derive IC50 values for inhibitors.

T1 sequence (Q9NZQ7 19-238): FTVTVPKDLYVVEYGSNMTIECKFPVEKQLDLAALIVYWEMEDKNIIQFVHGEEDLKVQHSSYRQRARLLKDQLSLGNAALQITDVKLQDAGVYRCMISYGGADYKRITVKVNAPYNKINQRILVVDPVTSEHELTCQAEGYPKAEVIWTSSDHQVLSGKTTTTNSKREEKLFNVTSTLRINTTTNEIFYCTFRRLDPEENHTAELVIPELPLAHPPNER

IC50, ≤ 10 nM:
COc1nc(O[C@H]2CCc3c(-c4cccc(-c5nc6cc7c(c(C#N)c6o5)CC[C@H]7N5CC[C@@H](C(=O)NS(=O)(=O)C6CC6)C5)c4Cl)cccc32)c(Cl)cc1CN1CC2(CCC(=O)N2)C1 [Compound 083]
COc1nc(O[C@H]2CCc3c(-c4cccc(-c5nc6cc7c(c(C#N)c6o5)CC[C@H]7N5CC[C@@H](C(=O)NS(=O)(=O)C6CC6)C5)c4C)cccc32)ccc1CN1CC[C@@H](O)C1 [Compound 094]
COc1nc(O[C@H]2CCc3c(-c4cccc(-c5nc6cc7c(c(C#N)c6o5)CCC7N5CC[C@@H](C(=O)O)C5)c4C)cccc32)ccc1CN1CC[C@@H](O)C1 (stereo partly drawn) [Compound 003]
COc1nc(O[C@H]2CCc3c(-c4cccc(-c5nc6cc7c(c(C#N)c6o5)CCC7N5CC[C@@H](C(=O)O)C5)c4Cl)cccc32)ccc1CN1CC[C@@H](O)C1 (stereo partly drawn) [Compound 004]
COc1nc(O[C@H]2CCc3c(-c4cccc(-c5nc6cc7c(c(C#N)c6o5)CC[C@H]7N5CC[C@@H](C(=O)O)C5)c4C)cccc32)ccc1CN1CC[C@@H](O)C1 [Compound 091]
COc1nc(O[C@H]2CCc3c(-c4cccc(-c5nc6cc7c(c(C#N)c6o5)CC[C@H]7N5CC[C@@H](C(=O)NS(=O)(=O)C6CC6)C5)c4C)cccc32)c(C(F)F)cc1CN1CC[C@@H](O)C1 [Compound 087]
COc1nc(O[C@H]2CCc3c(-c4cccc(-c5nc6cc7c(c(C#N)c6o5)CC[C@H]7N5CC[C@@H](C(=O)NS(=O)(=O)C6(C)CC6)C5)c4C)cccc32)ccc1CN1CC[C@@H](O)C1 [Compound 095]
COc1nc(O[C@H]2CCc3c(-c4cccc(-c5nc6cc7c(c(C#N)c6o5)CC[C@H]7N5CC[C@@H](C(=O)NS(=O)(=O)C6(C)CC6)C5)c4Cl)cccc32)c(Cl)cc1CN1CC[C@@H](O)C1 [Compound 096]
COc1nc(O[C@H]2CCc3c(-c4cccc(-c5nc6cc7c(c(C#N)c6o5)CC[C@H]7N5CC[C@@H](C(=O)NS(=O)(=O)C6CC6)C5)c4Cl)cccc32)ccc1CN1CC[C@@H](O)C1 [Compound 093]
COc1nc(O[C@H]2CCc3c(-c4cccc(-c5nc6cc7c(c(C#N)c6o5)CC[C@H]7N5CC[C@@H](C(=O)NS(=O)(=O)C6(C)CC6)C5)c4Cl)cccc32)ccc1CN1CC[C@@H](O)C1 [Compound 097]
COc1nc(O[C@H]2CCc3c(-c4cccc(-c5cc6cc7c(c(C#N)c6o5)CC[C@H]7N5CC[C@@H](C(=O)NS(=O)(=O)C6CC6)C5)c4C)cccc32)c(Cl)cc1CN1CC[C@@H](O)C1 [Compound 080]
COc1nc(O[C@H]2CCc3c(-c4cccc(-c5nc6cc7c(c(C#N)c6o5)CC[C@H]7N5CC[C@@H](C(=O)O)C5)c4Cl)cccc32)ccc1CN1CC[C@@H](O)C1 [Compound 092]
COc1nc(O[C@H]2CCc3c(-c4cccc(-c5nc6cc7c(c(C#N)c6o5)CC[C@H]7N5CC[C@@H](C(=O)NS(=O)(=O)C6(C)CC6)C5)c4C)cccc32)c(Cl)cc1CN1CC[C@@H](O)C1 [Compound 098]
COc1nc(O[C@H]2CCc3c(-c4cccc(-c5nc6cc7c(c(C#N)c6o5)CC[C@H]7N5CC[C@@H](C(=O)NS(=O)(=O)C6(C)CC6)C5)c4C)cccc32)c(Cl)cc1CN1CC2(CCC(=O)N2)C1 [Compound 090]
COc1nc(O[C@H]2CCc3c(-c4cccc(-c5nc6cc7c(c(C#N)c6o5)CC[C@H]7N5CC[C@@H](C(=O)NS(=O)(=O)C6CC6)C5)c4C)cccc32)c(Cl)cc1CN1CC[C@@H](O)C1 [Compound 079]
COc1nc(O[C@H]2CCc3c(-c4cccc(-c5cc6cc7c(c(C#N)c6o5)CCC7N5CC[C@@H](C(=O)O)C5)c4C)cccc32)ccc1CN1CC[C@@H](O)C1 (stereo partly drawn) [Compound 001]
COc1nc(O[C@H]2CCc3c(-c4cccc(-c5nc6cc7c(c(C#N)c6o5)CC[C@H]7N5CC[C@@H](C(=O)O)C5)c4Cl)cccc32)c(Cl)cc1CN1CC[C@@H](O)C1 [Compound 006]
COc1nc(O[C@H]2CCc3c(-c4cccc(-c5nc6cc7c(c(C#N)c6o5)CC[C@H]7N5CC[C@@H](C(=O)NS(=O)(=O)C6CC6)C5)c4Cl)cccc32)c(Cl)cc1CNC[C@H]1CCC(=O)N1 [Compound 081]
COc1nc(O[C@H]2CCc3c(-c4cccc(-c5nc6cc7c(c(C#N)c6o5)CCC7N5CC[C@@H](C(=O)O)C5)c4Cl)cccc32)c(Cl)cc1CN1CC[C@@H](O)C1 (stereo partly drawn) [Compound 005]
COc1nc(O[C@H]2CCc3c(-c4cccc(-c5nc6cc7c(c(C#N)c6o5)CC[C@H]7N5CC[C@@H](C(=O)O)C5)c4Cl)cccc32)c(C(F)F)cc1CN1CC[C@@H](O)C1 [Compound 086]
COc1nc(O[C@H]2CCc3c(-c4cccc(-c5nc6cc7c(c(C#N)c6o5)CC[C@H]7N5CC[C@@H](C(=O)NS(=O)(=O)C6CC6)C5)c4Cl)cccc32)c(C(F)F)cc1CN1CC[C@@H](O)C1 [Compound 088]
